Legend:
Format in all cases: biochemical
RET = target: T1, RET (Homo sapiens, UniProt P07949); assay: Inhibition of RET kinase activity, recombinant RET method (Kinase-Glo); details: RET 2 μg/ml, poly-EY4 substrate, 20 μM ATP, two hours at 30° C.
T1 construct: purchased Upstate 14-570MG
Procedure, shortened: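 Recombinant RET at 2 μg/ml in 20 mM MOPS/NaOH pH 7.0, 1 mM EDTA, 5% glycerol, 0.01% Brij35, 0.1% 2-mercaptoethanol, 1 mg/ml BSA; compounds 10 nM–30 μM final.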

ALK = ALK (Homo sapiens, UniProt Q9UM73); assay: Inhibition of kinase ALK (PLCγ1-GST substrate, anti-phosphotyrosine ELISA); details: ALK 180 ng/ml, 250 μM ATP, 30 minutes at 30° C.
ALK, sequence (Q9UM73 19-1620, species assumed): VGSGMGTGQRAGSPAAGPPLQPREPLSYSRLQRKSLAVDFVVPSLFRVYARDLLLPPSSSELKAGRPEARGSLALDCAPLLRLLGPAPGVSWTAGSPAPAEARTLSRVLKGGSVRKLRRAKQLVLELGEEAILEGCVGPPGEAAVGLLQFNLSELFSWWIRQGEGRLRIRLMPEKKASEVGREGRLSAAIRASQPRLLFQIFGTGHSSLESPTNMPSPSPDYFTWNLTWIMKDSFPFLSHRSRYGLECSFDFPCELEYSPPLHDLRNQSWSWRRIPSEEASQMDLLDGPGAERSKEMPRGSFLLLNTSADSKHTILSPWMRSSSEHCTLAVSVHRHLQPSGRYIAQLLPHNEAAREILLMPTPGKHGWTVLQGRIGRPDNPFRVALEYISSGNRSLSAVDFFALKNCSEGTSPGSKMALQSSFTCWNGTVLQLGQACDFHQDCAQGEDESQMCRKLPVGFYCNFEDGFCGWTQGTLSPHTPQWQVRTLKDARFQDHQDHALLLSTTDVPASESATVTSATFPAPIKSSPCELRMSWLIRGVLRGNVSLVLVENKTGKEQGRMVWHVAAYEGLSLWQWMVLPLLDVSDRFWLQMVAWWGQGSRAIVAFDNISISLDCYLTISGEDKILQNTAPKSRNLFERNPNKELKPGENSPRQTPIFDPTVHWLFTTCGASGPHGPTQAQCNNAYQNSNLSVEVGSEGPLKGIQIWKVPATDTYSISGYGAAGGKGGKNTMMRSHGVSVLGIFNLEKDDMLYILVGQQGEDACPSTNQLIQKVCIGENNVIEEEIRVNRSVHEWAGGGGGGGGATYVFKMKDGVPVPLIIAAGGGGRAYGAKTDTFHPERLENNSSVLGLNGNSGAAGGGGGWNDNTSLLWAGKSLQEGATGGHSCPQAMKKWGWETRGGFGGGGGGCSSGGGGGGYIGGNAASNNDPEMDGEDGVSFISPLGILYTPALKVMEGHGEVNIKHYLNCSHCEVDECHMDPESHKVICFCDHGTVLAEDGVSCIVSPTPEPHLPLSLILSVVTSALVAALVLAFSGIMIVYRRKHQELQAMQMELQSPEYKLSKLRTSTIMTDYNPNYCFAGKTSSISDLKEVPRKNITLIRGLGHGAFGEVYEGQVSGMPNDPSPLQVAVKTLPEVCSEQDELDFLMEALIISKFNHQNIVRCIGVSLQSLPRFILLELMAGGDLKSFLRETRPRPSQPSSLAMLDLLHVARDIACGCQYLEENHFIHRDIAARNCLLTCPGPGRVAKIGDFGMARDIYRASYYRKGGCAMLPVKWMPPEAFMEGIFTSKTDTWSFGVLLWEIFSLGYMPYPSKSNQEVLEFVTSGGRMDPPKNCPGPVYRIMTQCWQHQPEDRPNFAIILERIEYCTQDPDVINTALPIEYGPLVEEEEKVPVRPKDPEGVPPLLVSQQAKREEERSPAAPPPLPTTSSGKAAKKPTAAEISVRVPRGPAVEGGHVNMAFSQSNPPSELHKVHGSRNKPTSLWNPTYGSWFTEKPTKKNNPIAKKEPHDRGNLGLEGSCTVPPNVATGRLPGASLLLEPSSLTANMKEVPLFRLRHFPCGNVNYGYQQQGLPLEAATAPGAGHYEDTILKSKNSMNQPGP
Protocol: Incubation is carried out for 30 minutes at 30° C. with agitation.
The signal is read in luminescent mode using a luminometer.

PIM-1 = target: T2, PIM-1 (Homo sapiens, UniProt P11309); assay: Inhibition of kinase PIM-1 (Kinase-Glo); details: PIM-1 0.625 μg/ml, 10 μM ATP, forty minutes at 30° C.
T2 construct: purchased Upstate 14-573
T2 sequence (P11309 whole entry): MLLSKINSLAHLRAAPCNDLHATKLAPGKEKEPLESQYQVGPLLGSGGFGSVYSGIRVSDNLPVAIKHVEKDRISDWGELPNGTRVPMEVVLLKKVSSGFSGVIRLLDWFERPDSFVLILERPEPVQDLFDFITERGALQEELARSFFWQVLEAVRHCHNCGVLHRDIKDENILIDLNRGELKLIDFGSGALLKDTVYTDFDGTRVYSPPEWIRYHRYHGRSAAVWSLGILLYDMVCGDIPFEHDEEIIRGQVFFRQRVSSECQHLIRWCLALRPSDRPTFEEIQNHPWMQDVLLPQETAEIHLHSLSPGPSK
Procedure, shortened: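 PIM-1 (0.625 μg/ml) in MOPS/NaOH pH 7 with Mg acetate was run with 70 μM S6 kinase/Rsk2 peptide and 10 μM ATP, with compound at 10 nM–30 μM final.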

TrkA = target: T3, TrkA (Homo sapiens, UniProt P04629); assay: Inhibition of kinase TrkA (Kinase-Glo); details: TrkA 4 μg/ml, 30 μM ATP, two hours at 30° C.
T3 construct: purchased Upstate 14-571
T3 sequence (P04629 33-796): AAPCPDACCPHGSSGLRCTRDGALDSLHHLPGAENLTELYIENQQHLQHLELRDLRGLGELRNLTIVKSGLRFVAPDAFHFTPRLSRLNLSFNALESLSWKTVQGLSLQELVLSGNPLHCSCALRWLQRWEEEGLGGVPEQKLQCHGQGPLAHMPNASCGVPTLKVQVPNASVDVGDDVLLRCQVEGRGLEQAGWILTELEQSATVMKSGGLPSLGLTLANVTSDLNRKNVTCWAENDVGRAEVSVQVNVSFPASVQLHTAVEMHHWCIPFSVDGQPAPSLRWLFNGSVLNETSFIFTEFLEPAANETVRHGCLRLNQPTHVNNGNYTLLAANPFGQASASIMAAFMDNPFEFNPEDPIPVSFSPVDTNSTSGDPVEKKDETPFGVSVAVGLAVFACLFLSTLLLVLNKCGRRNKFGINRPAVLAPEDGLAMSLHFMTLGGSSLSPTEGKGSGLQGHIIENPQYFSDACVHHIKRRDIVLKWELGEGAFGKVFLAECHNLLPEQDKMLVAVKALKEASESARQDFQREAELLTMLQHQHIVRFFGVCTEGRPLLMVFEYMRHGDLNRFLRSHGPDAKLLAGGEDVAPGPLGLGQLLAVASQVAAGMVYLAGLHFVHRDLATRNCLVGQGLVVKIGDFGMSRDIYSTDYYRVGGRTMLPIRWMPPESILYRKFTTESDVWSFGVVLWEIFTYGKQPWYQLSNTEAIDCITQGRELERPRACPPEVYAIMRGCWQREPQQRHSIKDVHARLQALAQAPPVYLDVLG
Protocol: Protein TrkA (Upstate 14-571; batch #25634U) is incubated at a concentration of 4 μg/ml in a buffer containing 8 mM of MOPS/NaOH pH7, 0.2 mM EDTA, 40 mM MgAc (Sigma #229768), 1 mM DTT (Fluka #43816), NaOV 1 mM, 0.01% Triton Tx100, in the presence of 1 mg/ml of peptide substrate poly-EY (Upstate #P0275), and 30 μM of ATP.
The dilution buffer for TrkA is as follows: 20 mM MOPS/NaOH pH7, 1 mM EDTA, 5% glycerol, 0.01% Brij35, 0.1% 2-mercapto, 1 mg/ml BSA.
(§1) The compound to be tested is first added to the enzyme to give a reaction volume of 50 μl. The dilution of the compounds of the invention is distributed so as to obtain a scale of final concentrations between 10 nM and 30 μM.
(§2) After incubation of the reaction mixture for two hours at 30° C., the level of ATP that remains is assayed using the Kinase-Glo Luminescent Kinase Assay (Promega #V6712) according to the conditions recommended by the supplier. The luminescence induced is read in a plate reader (Envision-Perkin Elmer).

TrkB = target: T4, TrkB (Homo sapiens, UniProt Q16620); assay: Inhibition of kinase TrkB (Kinase-Glo); details: TrkB 4 μg/ml, 40 μM ATP, two hours at 30° C.
T4 construct: purchased Upstate 14-507
T4 sequence (Q16620 32-822): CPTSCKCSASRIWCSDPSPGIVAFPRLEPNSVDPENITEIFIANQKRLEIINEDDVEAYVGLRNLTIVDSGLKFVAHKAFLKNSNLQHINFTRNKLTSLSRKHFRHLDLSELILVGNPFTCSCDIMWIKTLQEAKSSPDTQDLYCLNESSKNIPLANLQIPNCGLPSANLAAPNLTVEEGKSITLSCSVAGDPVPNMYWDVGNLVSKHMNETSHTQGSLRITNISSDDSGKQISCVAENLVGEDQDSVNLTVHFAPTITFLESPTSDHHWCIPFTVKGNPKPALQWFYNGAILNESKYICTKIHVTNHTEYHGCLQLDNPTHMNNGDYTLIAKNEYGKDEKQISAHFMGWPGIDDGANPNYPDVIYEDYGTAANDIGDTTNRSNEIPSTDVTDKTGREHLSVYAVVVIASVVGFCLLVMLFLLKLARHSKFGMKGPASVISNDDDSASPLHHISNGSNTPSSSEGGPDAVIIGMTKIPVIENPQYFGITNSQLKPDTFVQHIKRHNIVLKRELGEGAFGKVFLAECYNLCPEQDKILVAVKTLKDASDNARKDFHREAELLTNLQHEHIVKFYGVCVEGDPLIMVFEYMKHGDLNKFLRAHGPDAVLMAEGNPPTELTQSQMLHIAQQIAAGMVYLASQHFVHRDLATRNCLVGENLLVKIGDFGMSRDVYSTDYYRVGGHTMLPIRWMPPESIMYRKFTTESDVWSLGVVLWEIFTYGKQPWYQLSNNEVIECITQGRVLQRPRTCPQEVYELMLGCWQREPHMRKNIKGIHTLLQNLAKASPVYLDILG
Protocol: Protein TrkB (Upstate 14-507; batch #25578U) is incubated at a concentration of 4 μg/ml in a buffer containing 8 mM of MOPS/NaOH pH7, 0.2 mM EDTA, 40 mM MgAc (Sigma #229768), 1 mM DTT (Fluka #43816), NaOV 1 mM, 25 mM 2-glycerolphosphate (Sigma #G9891), in the presence of 2.5 mg/ml of peptide substrate poly-EY (Upstate #P0275), and 40 μM of ATP.
The dilution buffer for TrkB is as follows: 20 mM MOPS/NaOH pH7, 1 mM EDTA, 5% glycerol, 0.01% Brij35, 0.1% 2-mercapto, 1 mg/ml BSA.
as §1, §2

T1 sequence (P07949 29-1114): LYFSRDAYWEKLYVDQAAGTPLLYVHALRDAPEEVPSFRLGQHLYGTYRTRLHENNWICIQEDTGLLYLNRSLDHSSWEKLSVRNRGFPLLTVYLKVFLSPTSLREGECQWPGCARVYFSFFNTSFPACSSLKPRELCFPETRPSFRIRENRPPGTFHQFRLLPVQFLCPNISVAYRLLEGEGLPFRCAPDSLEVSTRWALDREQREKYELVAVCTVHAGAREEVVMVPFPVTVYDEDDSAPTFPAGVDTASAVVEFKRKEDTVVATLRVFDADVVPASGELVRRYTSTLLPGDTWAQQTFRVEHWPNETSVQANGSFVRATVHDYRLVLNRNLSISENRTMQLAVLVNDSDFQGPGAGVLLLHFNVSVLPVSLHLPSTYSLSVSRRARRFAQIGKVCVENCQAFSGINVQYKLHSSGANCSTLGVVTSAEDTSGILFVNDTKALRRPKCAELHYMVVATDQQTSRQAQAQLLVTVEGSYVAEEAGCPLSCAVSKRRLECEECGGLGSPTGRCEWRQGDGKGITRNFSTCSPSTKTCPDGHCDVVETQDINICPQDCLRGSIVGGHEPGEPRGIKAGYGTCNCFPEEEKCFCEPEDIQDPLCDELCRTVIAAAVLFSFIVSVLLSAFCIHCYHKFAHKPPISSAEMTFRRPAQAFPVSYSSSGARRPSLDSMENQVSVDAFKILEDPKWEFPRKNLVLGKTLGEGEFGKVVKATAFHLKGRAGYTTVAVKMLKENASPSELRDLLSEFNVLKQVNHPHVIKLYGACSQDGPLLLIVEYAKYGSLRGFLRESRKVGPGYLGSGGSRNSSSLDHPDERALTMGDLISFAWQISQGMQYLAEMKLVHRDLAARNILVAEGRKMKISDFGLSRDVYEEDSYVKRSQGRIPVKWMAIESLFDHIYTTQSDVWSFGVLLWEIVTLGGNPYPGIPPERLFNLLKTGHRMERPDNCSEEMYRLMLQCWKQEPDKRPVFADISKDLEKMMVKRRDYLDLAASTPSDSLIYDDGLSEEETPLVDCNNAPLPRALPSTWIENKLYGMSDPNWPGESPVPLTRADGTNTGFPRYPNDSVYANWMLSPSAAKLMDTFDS

IC50 (RET) | IC50 (ALK) | IC50 (PIM-1) | IC50 (TrkA) | IC50 (TrkB) | Structure (SMILES)
0.1 to 1 µM | 0.1 to 1 µM | 10 to 100 µM | – | – | CCOC(=O)c1c[nH]c2c(=O)[nH]c3ccc(S(=O)(=O)NC[C@H]4CCNC4)cc3c12 [Compound 97, (S)-4-Oxo-8-[(pyrrolidin-3-methyl)-sulfamoyl]-4,5-dihydro-3H-pyrrolo[2,3-c]quinoline-1-ethyl carboxylate]
0.1 to 1 µM | 0.1 to 1 µM | 1 to 10 µM | – | – | CCOC(=O)c1c[nH]c2c(=O)[nH]c3ccc(S(=O)(=O)NC4CCNCC4)cc3c12 [Compound 91, 4-oxo-8-(piperidin-4-ylsulfamoyl)-4,5-dihydro-3H-pyrrolo[2,3-c]quinoline-1-ethyl carboxylate]
0.1 to 1 µM | 0.1 to 1 µM | 1 to 10 µM | – | – | CCOC(=O)c1c[nH]c2c(=O)[nH]c3ccc(S(=O)(=O)N4CC5CNCC5C4)cc3c12 (stereo not shown) [Compound 93, 8-(Octahydro-pyrrolo[3,4-c]pyrrole-2-sulfonyl)-4-oxo-4,5-dihydro-3H-pyrrolo[2,3-c]quinoline-1-ethyl carboxylate]
0.1 to 1 µM | 1 to 10 µM | 1 to 10 µM | – | – | COC(=O)c1c[nH]c2c(=O)[nH]c3ccc(S(=O)(=O)NC4CCNCC4)cc3c12 [Compound 113, 4-Oxo-8-(piperidin-4-ylsulfamoyl)-4,5-dihydro-3H-pyrrolo[2,3-c]quinoline-1-methyl carboxylate]
1 to 10 µM | 0.1 to 1 µM | 1 to 10 µM | – | – | COC(=O)c1c[nH]c2c(=O)[nH]c3ccc(S(=O)(=O)NC4CCCNC4)cc3c12 (stereo not shown) [Compound 112, 4-Oxo-8-(piperidin-3-ylsulfamoyl)-4,5-dihydro-3H-pyrrolo[2,3-c]quinoline-1-methyl carboxylate]

More lines, now with the values behind:

Structure (SMILES) | IC50 (RET) | IC50 (ALK) | IC50 (PIM-1) | IC50 (TrkA) | IC50 (TrkB)
CCOC(=O)c1c[nH]c2c(=O)[nH]c3ccc(-c4csc(Nc5ccccc5)n4)cc3c12 [Compound 271, 4-Oxo-8-(2-phenylamino-thiazol-4-yl)-4,5-dihydro-3H-pyrrolo[2,3-c]quinoline-1-ethyl carboxylate] | 0.1 to 1 µM | 0.1 to 1 µM | 10 to 100 µM | 1 to 10 µM | 1 to 10 µM
CCOC(=O)c1c[nH]c2c(=O)[nH]c3ccc(S(=O)(=O)NCCCCN)cc3c12 [Compound 33, 8-(4-Amino-butylsulfamoyl)-4-oxo-4,5-dihydro-3H-pyrrolo[2,3-c]quinoline-1-ethyl carboxylate] | 0.1 to 1 µM | 1 to 10 µM | 10 to 100 µM | – | –
CCOC(=O)c1c[nH]c2c(=O)[nH]c3ccc(S(=O)(=O)NCCCN(C)C)cc3c12 [Compound 32, 8-(3-Dimethylamino-propylsulfamoyl)-4-oxo-4,5-dihydro-3H-pyrrolo[2,3-c]quinoline-1-ethyl carboxylate] | 0.1 to 1 µM | 10 to 100 µM | 10 to 100 µM | – | –
CCCOC(=O)c1c[nH]c2c(=O)[nH]c3ccc(S(=O)(=O)N(C)C4CN(C(c5ccccc5)c5ccccc5)C4)cc3c12 [Compound 130, 8-[(1-Benzhydryl-azetidin-3-yl)-methyl-sulfamoyl]-4-oxo-4,5-dihydro-3H-pyrrolo[2,3-c]quinoline-1-propyl carboxylate] | 0.1 to 1 µM | 0.1 to 1 µM | – | – | –
